Experimental data as given in US4112218A, “Method of preparing sterol glycosides from plants” (Nippon Shinyaku Co., Ltd., priority 1976, dated 1978).
Where two headings read alike, the source gives them in different places.

Experiments:
[1] = system: bleeding from the amputated tail end; test: hemostatic effect, Motohashi et al. model: time until bleeding from amputated mouse tail tip in water is completely stopped; type: in vivo; settings: mice, tail tip amputation
pulmonary hemorrhage = pulmonary hemorrhage in mice under reduced pressure (scoring method; vascular stabilizing effect); type: in vivo; settings: Mus musculus, reduced pressure of 50 ± 0.5 mm Hg/15 sec

## CN1C2=CC(=O)C(=NNC(N)=O)C=C2CC1S(=O)(=O)O (stereo not drawn) [Carbazochrome sodium sulfonate]
[1]; ip, read-out: ED50 i.p. (hemostatic effect)
  ED50: 5.4 mg/kg
[1]; iv, read-out: ED50 i.v. (hemostatic effect)
  ED50: 3.6 mg/kg
[1]; po, read-out: ED50 p.o. (hemostatic effect)
  ED50: 36 mg/kg
Pulmonary hemorrhage; ip, read-out: ED50 i.p. (pulmonary hemorrhage)
  ED50: 112 mg/kg
Pulmonary hemorrhage; iv, read-out: ED50 i.v. (pulmonary hemorrhage)
  ED50: 80 mg/kg
Pulmonary hemorrhage; po, read-out: ED50 p.o. (pulmonary hemorrhage)
  ED50: 400 mg/kg
